≈ marks a conversion by molar mass, not a printed value. Calls of active or inactive are those of the source. No cut-off for these calls is given here.
Legend:
[1] = Half life in PBS buffer assessed as taxol circulation time at pH 7; type: ADME
[2] = Aqueous solubility of the compound; type: physicochemical; details: aqueous solution
MCF7 [3] = assay: Cytotoxicity against human MCF7 cells; type: functional, cell-based
EVSA-T = assay: Cytotoxicity against human EVSA-T cells; type: functional, cell-based
HT-29 = assay: Cytotoxicity against human HT29 cells; type: functional, cell-based
MCF7 [4] = assay: Cytotoxicity against ERalpha positive human MCF7 cells; type: functional, cell-based; details: for EC50: read-out: ED50 (the source's name)
[5] = Cytotoxicity against human IGROV cells; type: functional, cell-based
LoVo [6] = assay: Cytotoxicity against human LoVo cells in presence of beta-glucuronidase; type: functional, cell-based
[7] = system: M19 melanoma cell line (human); assay: Cytotoxicity against human M19 melanoma cells
Mus musculus [8] = species: Mus musculus; assay: Survival of p388 tumor bearing mouse after 30 days; type: functional, organism-based
PC-3 = assay: Cytotoxicity against ERbeta positive human PC3 cells; type: functional, cell-based
MDA-MB-231 = assay: Cytotoxicity against ERalpha negative human MDA-MB-231 cells; type: functional, cell-based
OVCAR-3 [9] = assay: Cytotoxicity against human OVCAR-3 cells in presence of beta-glucuronidase; type: functional, cell-based
A2780 = assay: Cytotoxicity against ERbeta negative human A2780 cells; type: functional, cell-based
OVCAR-3 [10] = assay: Cytotoxicity against human OVCAR-3 cells; type: functional, cell-based
Mus musculus [11] = species: Mus musculus; assay: Toxicity assessed as reduction of body weight in mouse; type: organism-based; details: in vivo
LoVo [12] = assay: Ratio of IC50 of drug for human LoVo cells to IC50 of taxotere for human LoVo cells; type: functional
[13] = Half life in presence of 30 ug/mL beta-glucuronidase assessed as taxol release at 30 ug/mL; type: ADME
Mus musculus [14] = assay: Reduction of body weight in human L2987 xenografted athymic mouse at 125 mg/kg; type: functional; design: scale not given: the % may be the effect or the level left
[15] = Half life in DTT buffer assessed as taxol release; type: ADME
L2987 [16] = assay: Cytotoxicity against human L2987 cells; type: functional, cell-based
L2987 [17] = assay: Cytotoxicity against human L2987 cells in presence of DTT; type: functional, cell-based
[18] = Half life at pH 7; type: ADME; details: buffer
[19] = Half life at pH 5; type: ADME; details: buffer
MCF-7 (Homo sapiens) = assay: Ratio of IC50 for ERalpha positive human MCF-7 cells to IC50 for ERalpha negative human MDA-MB-231 cells
[20] = Half life in presence of 50 ug/mL beta-glucuronidase assessed as taxol release; type: ADME

## CC(=O)O[C@H]1C(=O)[C@@]2(C)[C@H]([C@H](OC(=O)c3ccccc3)[C@]3(O)C[C@H](OC(=O)[C@H](OC(=O)C[C@H](O)C(=O)O)[C@@H](NC(=O)c4ccccc4)c4ccccc4)C(C)=C1C3(C)C)[C@]1(OC(C)=O)CO[C@@H]1C[C@@H]2O
[1]
  t1/2: > 1440 min
[2]
  solubility: 200 µg/mL (≈ 206 µM)
MCF7 [3]
  IC50: < 3 ng/mL
EVSA-T
  IC50: < 3 ng/mL

## CC(=O)O[C@H]1C(=O)[C@@]2(C)[C@H]([C@H](OC(=O)c3ccccc3)[C@]3(O)C[C@H](OC(=O)[C@H](O)[C@@H](NC(=O)c4ccccc4)c4ccccc4)C(C)=C1C3(C)C)[C@]1(OC(C)=O)CO[C@@H]1C[C@@H]2O [PACLITAXEL]
HT-29
  IC50: 30 ng/mL (≈ 0.0351 µM)
MCF7 [4]
  EC50: 50 ng/mL (≈ 0.0586 µM)
[2]
  solubility: 10 µg/mL (≈ 11.7 µM)
[5]
  IC50: 10 ng/mL (≈ 0.0117 µM)
LoVo [6]
  IC50: 90 nM
[7]
  IC50: < 3 ng/mL
Mus musculus [8]
  Activity: Toxic
PC-3
  IC50: 77 nM
MDA-MB-231
  IC50: 4.5 nM
OVCAR-3 [9]
  Activity: inactive
A2780
  IC50: 25 nM
OVCAR-3 [10]
  IC50: 0.2 nM

## CC(=O)O[C@H]1C(=O)[C@@]2(C)[C@H]([C@H](OC(=O)c3ccccc3)[C@]3(O)C[C@H](OC(=O)[C@H](OC(=O)CN(C)CC(=O)NCCOCCOCCOCCNC(=O)CCC(NC(=O)c4ccc(NCc5cnc6nc(N)[nH]c(=O)c6n5)cc4)C(=O)O)[C@@H](NC(=O)c4ccccc4)c4ccccc4)C(C)=C1C3(C)C)[C@]1(OC(C)=O)CO[C@@H]1C[C@@H]2O (stereo not given in full)
Mus musculus [11]
  Activity: Non-toxic

## CC(=O)O[C@H]1C(=O)[C@@]2(C)[C@H]([C@H](OC(=O)c3ccccc3)[C@]3(O)C[C@H](OC(=O)[C@H](OC(=O)N(C)CCN(C)C(=O)OCc4ccc(O[C@@H]5O[C@H](C(=O)O)[C@@H](O)[C@H](O)[C@H]5O)c([N+](=O)[O-])c4)[C@@H](NC(=O)OC(C)(C)C)c4ccccc4)C(C)=C1C3(C)C)[C@]1(OC(C)=O)CO[C@@H]1C[C@@H]2O
LoVo [12]
  Ratio IC50: 337
LoVo [6]
  Activity: inactive
[13]
  t1/2: 10 min

## CC(=O)O[C@H]1C(=O)[C@@]2(C)[C@H]([C@H](OC(=O)c3ccccc3)[C@]3(O)C[C@H](OC(=O)[C@H](OC(=O)C(C)(C)CCSSC[C@H](C)C(=O)N4CCC[C@@H]4C(=O)O)[C@@H](NC(=O)c4ccccc4)c4ccccc4)C(C)=C1C3(C)C)[C@]1(OC(C)=O)CO[C@@H]1C[C@@H]2O
Mus musculus [14]
  Activity: 10%
[15]
  t1/2: 25 min

## CC(=O)O[C@H]1C(=O)[C@@]2(C)[C@H]([C@H](OC(=O)c3ccccc3)[C@]3(O)C[C@H](OC(=O)[C@H](OC(=O)C(C)(C)CCSS[C@@H]4C[C@H](CO)[C@@H](O)[C@H](O)[C@H]4O)[C@@H](NC(=O)c4ccccc4)c4ccccc4)C(C)=C1C3(C)C)[C@]1(OC(C)=O)CO[C@@H]1C[C@@H]2O
L2987 [16]
  IC50: 5700 nM
[15]
  t1/2: 12 min
L2987 [17]
  IC50: 200 nM

## CC(=O)O[C@H]1C(=O)[C@@]2(C)[C@H]([C@H](OC(=O)c3ccccc3)[C@]3(O)C[C@H](OC(=O)[C@H](OC(=O)COCC(=O)NCCOCCOCCOCCNC(=O)CCC(NC(=O)c4ccc(NCc5cnc6nc(N)[nH]c(=O)c6n5)cc4)C(=O)O)[C@@H](NC(=O)c4ccccc4)c4ccccc4)C(C)=C1C3(C)C)[C@]1(OC(C)=O)CO[C@@H]1C[C@@H]2O (stereo not given in full)
HT-29; read-out: ED50 (the source's name)
  EC50: 2.9 ng/mL (≈ 0.00185 µM)
MCF7 [4]
  EC50: 3.3 ng/mL (≈ 0.00211 µM)
[18]
  half-life: 40 h
[19]
  half-life: > 12.5 days

## CC(=O)O[C@H]1C(=O)[C@@]2(C)[C@H]([C@H](OC(=O)c3ccccc3)[C@]3(O)C[C@H](OC(=O)[C@@H](OC(=O)CCC(=O)O[C@@H]4C[C@]5(C)[C@@H](O)CC[C@H]5[C@@H]5CCc6cc(O)ccc6[C@H]54)[C@@H](NC(=O)c4ccccc4)c4ccccc4)C(C)=C1C3(C)C)[C@]1(OC(C)=O)CO[C@@H]1C[C@@H]2O
MCF7 [4]
  IC50: 103 nM
PC-3
  IC50: 68 nM
MDA-MB-231
  IC50: 304 nM
MCF-7 (Homo sapiens)
  Ratio IC50: 3
A2780
  IC50: 1900 nM

## CC(=O)O[C@H]1C(=O)[C@@]2(C)[C@H]([C@H](OC(=O)c3ccccc3)[C@]3(O)C[C@H](OC(=O)[C@H](OC(=O)N(C)CCN(C)C(=O)OCc4ccc(O)c(N)c4)[C@@H](NC(=O)c4ccccc4)c4ccccc4)C(C)=C1C3(C)C)[C@]1(OC(C)=O)CO[C@@H]1C[C@@H]2O
[20]
  t1/2: 13 min

Reference: ChEMBL document CHEMBL1140624, “Improved biochemical strategies for targeted delivery of taxoids” (Bioorg Med Chem, 2007)
